According to US12661333B2, “Composition for use in treatment of a biofilm in a subject” (TECHNOLOGICAL UNIVERSITY DUBLIN, priority 2020, dated 2026):

How the values were obtained:
[1] = tested on: human gingival fibroblasts (HGFs); design: dose or concentration left out as unconfirmed; details: exposed for 24 and 48 hours; cited from earlier work
[2] = tested on: Klebsiella pneumoniae NCIMB 418; experiment: Biofilm formation in vitro, crystal violet assay; format: cell-based; details: for reduction of biofilm formation versus control: 24 hours, 37° C., FIG. 1A
Experimental: (§1) FIG. 1: The effect of varying concentrations of DHA on the ability of Klebsiella pneumoniae NCIMB 418 (A) and Enterococcus faecalis ATCC 7080 (B) to form a biofilm in vitro. (10^6 CFU/well was incubated with various concentrations of DHA in a 96 well plate for 24 hours statically at 37° C. Biofilm formation was assessed using the crystal violet assay. Data represents the mean±SD for six independent experiments, carried out in triplicate. One-way ANOVA was performed for statistical analysis. *****P<0.001 compared to both the control (no DHA) and vehicle control (1% DMSO).
FIG. 2: Comparing DNA (16 μM) and Erythromycin (4 μg/ml) individually and adjunct for antibiofilm effects against Klebsiella pneumoniae NCIMB 481 in vitro. 10^6 CFU/well was incubated with each well of a 96 well plate for 24 hours statically at 37° C. Biofilm formation was assessed using the crystal violet assay. Data represents the mean±SD for four independent experiments, carried out in triplicate. One-way ANOVA was performed for statistical analysis. *****P<0.001 compared to both the control (no DHA or Erythromycin), vehicle control (1% DMSO), DHA (16 μM) and Erythromycin (4 μg·mL).
The effect of varying concentrations of DHA on the ability of Klebsiella pneumoniae NCIMB 418 and Enterococcus faecalis ATCC 7080 to form a biofilm in vitro was investigated. 10^6 CFU/well was incubated with various concentrations of DHA in a 96 well plate for 24 hours statically at 37° C. Biofilm formation was assessed using the crystal violet assay. Data represents the mean±SD for six independent experiments, carried out in triplicate. The assay involves seeding cells at 10^^6 CFU/ml in media with DHA. […] The samples is washed again to remove any unbound dye before dissolving the stain in acetic acid and measuring the reading in a spectrophotometer. […]
The effects of DHA (16 μM) and Erythromycin (4 μg/ml) were compared individually and adjunct for antibiofilm effects against Klebsiella pneumoniae NCIMB 481 in vitro. […] Biofilm formation was assessed using the crystal violet assay. […]

[3] = tested on: Enterococcus faecalis ATCC 7080; experiment: Biofilm formation in vitro, crystal violet assay; format: cell-based; details: for reduction of biofilm formation versus control: 24 hours, 37° C., FIG. 1B
Experimental: as §1
The effect of varying concentrations of DHA on the ability of Klebsiella pneumoniae NCIMB 418 and Enterococcus faecalis ATCC 7080 to form a biofilm in vitro was investigated. 10^6 CFU/well was incubated with various concentrations of DHA in a 96 well plate for 24 hours statically at 37° C. Biofilm formation was assessed using the crystal violet assay. Data represents the mean±SD for six independent experiments, carried out in triplicate. The assay involves seeding cells at 10^^6 CFU/ml in media with DHA. Cells were then left for 24 hrs to form biofilms before washing and staining with Crystal Violet. Crystal violet adheres to cells stuck to the sides of the tube/well. The samples is washed again to remove any unbound dye before dissolving the stain in acetic acid and measuring the reading in a spectrophotometer. The colour intensity relates to the level of biofilm present. The more colour the more bacteria in the biofilm. Merritt, J. H., Kadouri, D. E. and O'Toole, G. A. (2005) ‘Growing and Analyzing Static Biofilms’, Current Protocols in Microbiology, Chapter 1(Jul), p. Unit 1B.1.

[4] = tested on: human periodontal ligament cells (hPDLCs); design: dose or concentration left out as unconfirmed; details: exposed for 24 and 48 hours; cited from earlier work
[5] = summary of FIG. 1, concentration not stated

CC/C=C\C/C=C\C/C=C\C/C=C\C/C=C\C/C=C\CCC(=O)O [DHA, docosahexaenoic acid]
cytotoxic effects [1]: cytotoxic effects | reduction of biofilm formation versus control ([2]; DHA 6.25 μM): ~40% | reduction of biofilm formation versus control ([2]; DHA 100 μM): ~65% | reducing biofilm formation [2, 5]: approximately 60% | reduction of biofilm formation versus control ([3]; DHA 6.25 μM): ~20% | reduction of biofilm formation versus control ([3]; DHA 100 μM): ~65% | reducing biofilm formation [3, 5]: approximately 60% | cytotoxic effects [4]: cytotoxic effects
